Each compound was assayed against T1, Gamma secretase (Homo sapiens, UniProt P49768) (assay: Gamma secretase activity assay (membranes of C99-expressing 293 cells, Aβ 40/Aβ 42 ECL immunoassay)). Conditions: membranes incubated at 37 C for 1 h; Aβ 40 and Aβ 42 measured by ECL immunoassay; read-out: IC50 (concentration of compound producing 50% inhibition of enzyme activity).
T1 construct: endogenous in cells; host or cells: 293 cells (T-REx, clone pTRE.15), salt-washed membrane preparation; only the substrate SPC99-Lon is transfected
Type: biochemical
Procedure: Gamma secretase activity was determined as described by Zhang et a. (Biochemistry, 40 (16), 5049-5055, 2001). Activity is expressed either as a percent inhibition or as the concentration of compound producing 50% inhibition of enzyme activity.
Reagents. Antibodies W02, G2-10, and G2-11 were obtained from Dr. Konrad Beyreuther (University of Heidelberg, Heidelberg, Germany). W02 recognizes residues 5-8 of A peptide, while G2-10 and G2-11 recognize the specific C-terminal structure of A 40 and A 42, respectively. Biotin-4G8 was purchased from Senetec (St. Louis, Mo.). All tissue culture reagents used in this work were from Life Technologies, Inc., unless otherwise specified. Pepstatin A was purchased from Roche Molecular Biochemicals; DFK167 was from Enzyme Systems Products (Livermore, Calif.).
cDNA Constructs, Tissue Culture, and Cell Line Construction. The construct SPC99-Lon, which contains the first 18 residues and the C-terminal 99 amino acids of APP carrying the London mutation, has been described (Zhang, L., Song, L., and Parker, E. (1999) J. Biol. Chem. 274, 8966-8972). Upon insertion into the membrane, the 17 amino acid signal peptide is processed, leaving an additional leucine at the N-terminus of A. SPC99-Ion was cloned into the pcDNA4/TO vector (Invitrogen) and transfected into 293 cells stably transfected with pcDNA6/TR, which is provided in the T-REx system (Invitrogen). The transfected cells were selected in Dulbecco's modified Eagle's media (DMEM) supplemented with 10% fetal bovine serum, 100 units/mL penicillin, 100 µg/mL streptomycin, 250 µg/mL zeocin, and 5 µg/mL blasticidin (Invitrogen). Colonies were screened for A production by inducing C99 expression with […] tetracycline for 16-20 h and analyzing conditioned media with a sandwich immunoassay (see below). One of the clones, designated as pTRE.15, was used in these studies.
Membrane Preparation. C99 expression in cells was induced with […] tetracycline for 20 h. The cells were pretreated with […] 12-myristate 13-acetate (PMA) and […] brefeldin A (BFA) for 5-6 h at 37 C before harvesting. The cells were washed 3 times with cold phosphate-buffered saline (PBS) and harvested in buffer A containing 20 mM Hepes (pH 7.5), 250 mM sucrose, 50 mM KCl, 2 mM EDTA, 2 mM EGTA, and Complete protease inhibitor tablets (Roche Molecular Biochemicals). The cell pellets were flash-frozen in liquid nitrogen and stored at −70 C. before use.
To make membranes, the cells were resuspended in buffer A and lysed in a nitrogen bomb at 600 psi. The cell lysate was centrifuged at 1500 g for 10 min to remove nuclei and large cell debris. The supernatant was centrifuged at 100000 g for 1 h. The membrane pellet was resuspended in buffer A plus 0.5 M NaCl, and the membranes were collected by centrifugation at 200000 g for 1 h. The salt-washed membrane pellet was washed again in buffer A and centrifuged at 100000 g for 1 h. The final membrane pellet was resuspended in a small volume of buffer A using a Teflon-glass homogenizer. The protein concentration was determined, and membrane aliquots were flash-frozen in liquid nitrogen and stored at −70 C.
-Secretase Reaction and A Analysis. To measure -secretase activity, membranes were incubated at 37 C for 1 h in 50 L of buffer containing 20 mM Hepes (pH 7.0) and 2 mM EDTA. At the end of the incubation, Aβ 40 and Aβ 42 were measured using an electrochemiluminescence (ECL)-based immunoassay. Aβ 40 was identified with antibody pairs TAG-G2-10 and biotin-W02, while A 42 was identified with TAG-G2-11 and biotin-4G8. The ECL signal was measured using an ECL-M8 instrument (IGEN International, Inc.) according to the manufacturer's instructions. The data presented were the means of the duplicate or triplicate measurements in each experiment. The characteristics of -secretase activity described were confirmed using more than five independent membrane preparations.

IC50 [nM]	SMILES
28 to 345	COC(=O)c1ccc(CN(C2CCCN(C(=O)OC(C)(C)C)C2)S(=O)(=O)c2ccc(C(F)(F)F)cc2)cc1 (centres unmarked) [Example 14]
28 to 345	COC(=O)c1ccc(CN(C2CCCN(C(=O)OC(C)(C)C)C2)S(=O)(=O)c2ccc(OC(F)(F)F)cc2)cc1 (centres unmarked) [Example 16]
28 to 345	COC(=O)c1ccc(CN(C2CCCN(C(=O)OC(C)(C)C)C2)S(=O)(=O)c2ccc([N+](=O)[O-])cc2)cc1 (centres unmarked) [Example 17]
28 to 345	COC(=O)c1ccc(CN(C2CCCN(C(=O)OC(C)(C)C)C2)S(=O)(=O)c2ccc(C#N)cc2)cc1 (centres unmarked) [Example 18]
28 to 345	COC(=O)c1ccc(CN(C2CCCN(C(=O)OC(C)(C)C)C2)S(=O)(=O)c2ccc(-c3ccccc3)cc2)cc1 (centres unmarked) [Example 20]
28 to 345	COC(=O)c1ccc(CN(C2CCCN(C(=O)Cc3cccnc3)C2)S(=O)(=O)c2ccc(Cl)cc2)cc1 (centres unmarked) [Example 56]
28 to 345	COC(=O)c1ccc(CN(C2CCCN(C(=O)Cc3ccccc3)C2)S(=O)(=O)c2ccc(Cl)cc2)cc1 (centres unmarked) [Example 62]
28 to 345	COC(=O)c1ccc(CN(C2CCCN(C(=O)C(C)C)C2)S(=O)(=O)c2ccc(OC)cc2)cc1 (centres unmarked) [Example 68]
28 to 345	COC(=O)c1ccc(CN(C2CCCN(C(=O)Cc3cc(F)cc(F)c3)C2)S(=O)(=O)c2ccc(C(F)(F)F)cc2)cc1 (centres unmarked) [Example 79]
28 to 345	CC1COCC(C)N1C(=O)N1CCCC(N(c2cc(F)ccc2F)S(=O)(=O)c2ccc(Cl)cc2)C1 (centres unmarked) [Example 161]
28 to 345	CC1CCCCN1C(=O)N1CCCC(N(c2cc(F)ccc2F)S(=O)(=O)c2ccc(Cl)cc2)C1 (centres unmarked) [Example 162]
28 to 345	CN1CCN(C(=O)N2CCCC(N(c3cc(F)ccc3F)S(=O)(=O)c3ccc(Cl)cc3)C2)CC1 (centres unmarked) [Example 180]
28 to 345	O=C(N1CCN(CCOCCO)CC1)N1CCCC(N(c2cc(F)ccc2F)S(=O)(=O)c2ccc(Cl)cc2)C1 (centres unmarked) [Example 181]
28 to 345	O=C(N1CCN(CCO)CC1)N1CCCC(N(c2cc(F)ccc2F)S(=O)(=O)c2ccc(Cl)cc2)C1 (centres unmarked) [Example 182]
28 to 345	O=C(N1CCCC(N(c2cc(F)ccc2F)S(=O)(=O)c2ccc(Cl)cc2)C1)N1CCCCC1CO (centres unmarked) [Example 192]
28 to 345	CN(C)CC1CCCCN1C(=O)N1CCC[C@H](N(c2cc(F)ccc2F)S(=O)(=O)c2ccc(Cl)cc2)C1 (some centres unmarked) [Example 213]
28 to 345	C[C@@H]1CN(C(=O)OC(C)(C)C)CCN1C(=O)N1CCC[C@H](N(c2cc(F)ccc2F)S(=O)(=O)c2ccc(Cl)cc2)C1 [Example 214]

Source: US7122675B2, “Gamma secretase inhibitors” (Schering Corporation, priority 2001, dated 2006)
